Reference: US20240261417A1, “SOS1 DEGRADING AGENT AND PREPARATION METHOD THEREFOR AND APPLICATION THEREOF” (SHANGHAI LEADINGTAC PHARMACEUTICAL CO. LTD., priority 2021, published 2024)

Assays:
SOS1 protein = target: T1, SOS1 protein (Homo sapiens, UniProt Q07889); assay: SOS1 degradation assay (Western blot), NCI-H358 cells; type: cell-based; design: The degradation of SOS1 by the compounds was investigated on KRAS G12C mutant human non-small cell lung cancer cells NCI-H358; host or cells: NCI-H358 (human cancer cell lines); settings: SOS1 degradation, NCI-H358 cells, 24 h, Western blot; for DC50: read-out: NCI-H358 (G12C) DC50; for Dmax: read-out: NCI-H358 (G12C) Dmax
T1 sequence (Q07889 1-1333): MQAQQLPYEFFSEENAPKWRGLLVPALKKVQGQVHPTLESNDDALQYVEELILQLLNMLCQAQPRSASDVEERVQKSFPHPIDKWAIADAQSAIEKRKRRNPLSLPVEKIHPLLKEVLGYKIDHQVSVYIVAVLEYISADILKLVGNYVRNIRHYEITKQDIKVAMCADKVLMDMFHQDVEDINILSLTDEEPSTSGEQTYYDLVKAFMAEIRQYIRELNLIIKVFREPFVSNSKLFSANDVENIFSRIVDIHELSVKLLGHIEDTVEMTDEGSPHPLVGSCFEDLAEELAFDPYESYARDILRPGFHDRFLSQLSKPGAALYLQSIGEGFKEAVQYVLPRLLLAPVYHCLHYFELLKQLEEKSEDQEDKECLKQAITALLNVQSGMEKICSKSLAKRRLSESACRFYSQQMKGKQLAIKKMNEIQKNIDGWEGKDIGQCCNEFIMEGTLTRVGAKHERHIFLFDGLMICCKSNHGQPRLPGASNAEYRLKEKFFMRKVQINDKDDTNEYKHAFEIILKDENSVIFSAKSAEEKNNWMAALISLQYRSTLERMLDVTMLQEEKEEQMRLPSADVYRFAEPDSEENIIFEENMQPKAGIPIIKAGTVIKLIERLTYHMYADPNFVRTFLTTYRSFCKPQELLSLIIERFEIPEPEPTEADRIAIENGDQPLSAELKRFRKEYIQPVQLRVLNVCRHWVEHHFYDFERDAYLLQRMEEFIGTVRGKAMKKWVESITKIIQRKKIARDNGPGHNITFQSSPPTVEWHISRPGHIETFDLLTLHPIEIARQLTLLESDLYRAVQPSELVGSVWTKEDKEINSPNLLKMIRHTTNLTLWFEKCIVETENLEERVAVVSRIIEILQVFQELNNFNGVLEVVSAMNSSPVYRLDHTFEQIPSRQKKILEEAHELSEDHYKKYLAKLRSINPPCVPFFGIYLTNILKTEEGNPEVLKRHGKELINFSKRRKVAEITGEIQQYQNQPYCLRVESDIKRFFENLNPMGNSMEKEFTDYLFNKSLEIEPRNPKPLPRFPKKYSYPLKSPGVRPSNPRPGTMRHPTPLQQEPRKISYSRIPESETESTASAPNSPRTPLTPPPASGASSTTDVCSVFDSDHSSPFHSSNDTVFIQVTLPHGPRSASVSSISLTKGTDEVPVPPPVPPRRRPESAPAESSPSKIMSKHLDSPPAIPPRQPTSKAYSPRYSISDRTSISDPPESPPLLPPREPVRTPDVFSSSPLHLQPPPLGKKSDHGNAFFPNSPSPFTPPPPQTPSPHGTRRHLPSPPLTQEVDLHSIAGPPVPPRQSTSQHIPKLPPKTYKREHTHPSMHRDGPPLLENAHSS
Method in brief: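 SOS1 degradation was assessed by densitometry of Western blots, relative to untreated controls, after 24 h compound exposure (0.03–3000 nM final, 37 °C, 5% CO2) of cells seeded at 5×10^5/well. Log concentration–response fitting gave DC50 and Dmax.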

KRAS-G12C/SOS1 = target: T2, KRAS-G12C/SOS1 (Homo sapiens, UniProt Q07889); assay: KRAS-G12C/SOS1 binding assay (HTRF); settings: inhibition of KRAS-G12C/SOS1 binding
T2 construct: purchased Cisbio 63ADKOOOCB16PEG
T2 sequence (Q07889 1-1333): T1 sequence (Q07889 1-1333)
Method in brief: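 HTRF competition assay with Tag1-SOS1 and Tag2-KRAS-G12C (10 μM GTP). Compounds at 10000 nM-0.04 nM final (0.5% DMSO), incubated 15 min at 25° C, then anti-tag Tb3+/XL665 antibodies added for 3 h on ice. The 665/620 nm ratio was compared with control and IC50 derived by nonlinear fit.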

Compound	DC50 (SOS1 protein)	Dmax (SOS1 protein)	IC50 (KRAS-G12C/SOS1)
CNCc1cccc(Cl)c1-c1csc([C@@H](C)Nc2nc(C)nc3cc(OC)c([C@H]4CC[C@H](C(=O)N5CCC(CCOCC6CCN(C(=O)c7ccc(Cl)c(N8CCC(=O)NC8=O)c7)CC6)CC5)CC4)cc23)c1 [Example 69, 1-(2-chloro-5-(4-((2-(1-((1R,4R)-4-(4-(((R)-1-(4-(2-chloro-6-((methylamino)methyl)phenyl)thien-2-yl)ethyl)amino)-7-methoxy-2-methylquinazolin-6-yl)cyclohexane-1-carbonyl)piperidin-4-yl)ethoxy)methyl)piperidine-1-carbonyl)phenyl)dihydropyrimidine-2,4(1H,3H)-dione]	< 50 nM	50 to 80%	≤ 15 nM
[2H]C1([2H])CC(OCC2CCN(C(=O)[C@H]3CC[C@H](c4cc5c(N[C@H](C)c6cc(N)cc(C(F)(F)F)c6)nc(C)nc5cc4OC)CC3)CC2)CC([2H])([2H])N1C(=O)c1ccc(Cl)c(N2CCC(=O)NC2=O)c1 [Example 45, 1-(5-(4-((1-((1R,4R)-4-(4-(((R)-1-(3-amino-5-(trifluoromethyl)phenyl)ethyl)amino)-7-methoxy-2-methylquinazolin-6-yl)cyclohexane-1-carbonyl)piperidin-4-yl)methoxy)piperidine-1-carbonyl-2,2,6,6-d4)-2-chlorophenyl)dihydropyrimidine-2,4(1H,3H)-dione]	100 to 500 nM	50 to 80%	≤ 15 nM
COc1cc2nc(C)nc(N[C@H](C)c3cc(N)cc(C(F)(F)F)c3)c2cc1C1=CCC(C(=O)N2CCC(CCOCC3CCN(C(=O)c4ccc(Cl)c(N5CCC(=O)NC5=O)c4)CC3)CC2)CC1 (stereo partly drawn) [Example 64, 1-(5-(4-((2-(1-(4-(4-(((R)-1-(3-amino-5-(trifluoromethyl)phenyl)ethyl)amino)-7-methoxy-2-methylquinazolin-6-yl)cyclohex-3-ene-1-carbonyl)piperidin-4-yl)ethoxy)methyl)piperidine-1-carbonyl)-2-chlorophenyl)dihydropyrimidine-2,4(1H,3H)-dione]	< 50 nM	50 to 80%	≤ 15 nM
CNCc1ccccc1-c1csc([C@@H](C)Nc2nc(C)nc3cc(OC)c([C@H]4CC[C@H](C(=O)N(C)CCCC5CCC6(CC5)CCN(C(=O)c5ccc(Cl)c(N7CCC(=O)NC7=O)c5)CC6)CC4)cc23)c1 [Example 49, (1R,4R)—N-(3-(3-(4-chloro-3-(2,4-dioxotetrahydropyrimidin-1(2H)-yl)benzoyl)-3-azaspiro[5.5]undecan-9-yl)propyl)-4-(7-methoxy-2-methyl-4-(((R)-1-(4-(2-((methylamino)methyl)phenyl)thien-2-yl)ethyl)amino)quinazolin-6-yl)-N-methylcyclohexane-1-carboxamide]	100 to 500 nM	50 to 80%	≤ 15 nM
COCCOc1cc2nc(C)nc(N[C@H](C)c3cc(N)cc(C(F)(F)F)c3)c2cc1[C@H]1CC[C@H](C(=O)N2CCN(CC3CCC4(CC3)CCN(C(=O)c3ccc(Cl)c(N5CCC(=O)NC5=O)c3)CC4)CC2)CC1 [Example 43, 1-(5-(9-((4-((1R,4R)-4-(4-(((R)-1-(3-amino-5-(trifluoromethyl)phenyl)ethyl)amino)-7-(2-methoxyethoxy)-2-methylquinazolin-6-yl)cyclohexane-1-carbonyl)piperazin-1-yl)methyl)-3-azaspiro[5.5]undecane-3-carbonyl)-2-chlorophenyl)dihydropyrimidine-2,4(1H,3H)-dione]	< 50 nM	50 to 80%	≤ 15 nM
COc1cc2nc(C)nc(N[C@H](C)c3cc(-c4c(Cl)cccc4CN(C)C)cs3)c2cc1[C@H]1CC[C@H](C(=O)N2CCC(CCCCN3CCN(C(=O)c4ccc(Cl)c(N5CCC(=O)NC5=O)c4)CC3)CC2)CC1 [Example 56, 1-(2-chloro-5-(4-(4-(1-((1R,4R)-4-(4-(((R)-1-(4-(2-chloro-6-((dimethylamino)methyl)phenyl)thien-2-yl)ethyl)amino)-7-methoxy-2-methylquinazolin-6-yl)cyclohexane-1-carbonyl)piperidin-4-yl)butyl)piperazine-1-carbonyl)phenyl)dihydropyrimidine-2,4(1H,3H)-dione]	< 50 nM	80 to 100%	≤ 15 nM
COc1ccc(C(=O)N2CCC3(CCC(CN4CCN(C(=O)[C@H]5CC[C@H](c6cc7c(N[C@H](C)c8cc(-c9c(Cl)cccc9CN(C)C)cs8)nc(C)nc7cc6OC)CC5)CC4)CC3)CC2)cc1N1CCC(=O)NC1=O [Example 59, 1-(5-(9-((4-((1R,4R)-4-(4-(((R)-1-(4-(2-chloro-6-((dimethylamino)methyl)phenyl)thien-2-yl)ethyl)amino)-7-methoxy-2-methylquinazolin-6-yl)cyclohexane-1-carbonyl)piperazin-1-yl)methyl)-3-azaspiro[5.5]undecane-3-carbonyl)-2-methoxyphenyl)dihydropyrimidine-2,4(1H,3H)-dione]	< 50 nM	80 to 100%	≤ 15 nM
COc1cc2nc(C)nc(N[C@H](C)c3cc(N)cc(C(F)(F)F)c3)c2cc1C1=CCC(C(=O)N2CCN(CCOCC3CCN(C(=O)c4ccc(Cl)c(N5CCC(=O)NC5=O)c4)CC3)CC2)CC1 (stereo partly drawn) [Example 53, 1-(5-(4-((2-(4-(4-(4-(((R)-1-(3-amino-5-(trifluoromethyl)phenyl)ethyl)amino)-7-methoxy-2-methylquinazolin-6-yl)cyclohex-3-ene-1-carbonyl)piperazin-1-yl)ethoxy)methyl)piperidine-1-carbonyl)-2-chlorophenyl)dihydropyrimidine-2,4(1H,3H)-dione]	< 50 nM	50 to 80%	≤ 15 nM
